Test results taken from PubChem BioAssay (NCI).
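The compound was tested at five concentrations on cells cultured in 96-well plates, with a 48-hour exposure period. Abbreviation: GI50, concentration required for 50% inhibition of growth. TGI is the concentration that stops growth completely.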

How the values were obtained:
Experiment in all cases: NCI-60 cell line screen, 48 h
A498 renal = tested on: A498 renal
LOX IMVI melanoma = tested on: LOX IMVI melanoma
NCI-H460 lung = tested on: NCI-H460 lung
CAKI-1 renal = tested on: CAKI-1 renal
SNB-75 CNS = tested on: SNB-75 CNS
MOLT-4 leukemia = tested on: MOLT-4 leukemia
SW-620 colon = tested on: SW-620 colon
HOP-62 NSCLC = tested on: HOP-62 NSCLC
M14 melanoma = tested on: M14 melanoma
SK-OV-3 ovarian = tested on: SK-OV-3 ovarian
SF-295 CNS = tested on: SF-295 CNS
SK-MEL-5 melanoma = tested on: SK-MEL-5 melanoma
NCI-H226 lung = tested on: NCI-H226 lung
MDA-MB-231 breast = tested on: MDA-MB-231 breast
KM12 colon = tested on: KM12 colon
OVCAR-3 ovarian = tested on: OVCAR-3 ovarian
SF-268 CNS = tested on: SF-268 CNS
SF-539 CNS = tested on: SF-539 CNS
MCF7 breast = tested on: MCF7 breast
SNB-19 CNS = tested on: SNB-19 CNS
IGROV1 ovarian = tested on: IGROV1 ovarian
HS 578T breast = tested on: HS 578T breast
MALME-3M melanoma = tested on: MALME-3M melanoma
PC-3 prostate = tested on: PC-3 prostate
RPMI-8226 leukemia = tested on: RPMI-8226 leukemia
MDA-MB-435 = tested on: MDA-MB-435
HL-60(TB) leukemia = tested on: HL-60(TB) leukemia
SK-MEL-2 melanoma = tested on: SK-MEL-2 melanoma
NCI-H23 lung = tested on: NCI-H23 lung
U251 CNS = tested on: U251 CNS
OVCAR-5 ovarian = tested on: OVCAR-5 ovarian
BT-549 breast = tested on: BT-549 breast
OVCAR-4 ovarian = tested on: OVCAR-4 ovarian
HT29 colon = tested on: HT29 colon
OVCAR-8 ovarian = tested on: OVCAR-8 ovarian
DU-145 prostate = tested on: DU-145 prostate
NCI-H522 lung = tested on: NCI-H522 lung
A549 NSCLC = tested on: A549 NSCLC
NCI/ADR-RES ovarian = tested on: NCI/ADR-RES ovarian
UACC-257 melanoma = tested on: UACC-257 melanoma
HCT-15 colon = tested on: HCT-15 colon
SK-MEL-28 melanoma = tested on: SK-MEL-28 melanoma
ACHN renal = tested on: ACHN renal
SR leukemia = tested on: SR leukemia
T-47D breast = tested on: T-47D breast
CCRF-CEM leukemia = tested on: CCRF-CEM leukemia
HCT-116 colon = tested on: HCT-116 colon
HCC-2998 colon = tested on: HCC-2998 colon
UO-31 renal = tested on: UO-31 renal
K-562 leukemia = tested on: K-562 leukemia
UACC-62 melanoma = tested on: UACC-62 melanoma
SN12C renal = tested on: SN12C renal
RXF 393 renal = tested on: RXF 393 renal
EKVX NSCLC = tested on: EKVX NSCLC
HOP-92 NSCLC = tested on: HOP-92 NSCLC
TK-10 renal = tested on: TK-10 renal
COLO 205 colon = tested on: COLO 205 colon
786-0 renal = tested on: 786-0 renal

Compound `Cc1cccc(CNc2c3ccccc3nc3ccccc23)c1` has a GI50 (A498 renal) of 1.32 µM, a TGI (A498 renal) of 2.7 µM and a GI50 (LOX IMVI melanoma) of 1.49 µM. The TGI (LOX IMVI melanoma) was 2.9 µM, the GI50 (NCI-H460 lung) was 1.99 µM and the TGI (NCI-H460 lung) was 5.03 µM. The GI50 (CAKI-1 renal) was 1.61 µM, the TGI (CAKI-1 renal) was 5.03 µM and the GI50 (SNB-75 CNS) was 1.08 µM. The TGI (SNB-75 CNS) was 8.32 µM, the GI50 (MOLT-4 leukemia) was 3.06 µM and the TGI (MOLT-4 leukemia) was 11.3 µM. The GI50 (SW-620 colon) was 1.74 µM, the TGI (SW-620 colon) was 5.63 µM and the GI50 (HOP-62 NSCLC) was 3.14 µM. The TGI (HOP-62 NSCLC) was 16.1 µM, the GI50 (M14 melanoma) was 1.57 µM and the TGI (M14 melanoma) was 3.35 µM. It also gave a GI50 (SK-OV-3 ovarian) of 2.61 µM, a TGI (SK-OV-3 ovarian) of 10.5 µM and a GI50 (SF-295 CNS) of 2.13 µM. The TGI (SF-295 CNS) was 6.67 µM, the GI50 (SK-MEL-5 melanoma) was 1.7 µM and the TGI (SK-MEL-5 melanoma) was 3.14 µM. The GI50 (NCI-H226 lung) was 1.99 µM, the TGI (NCI-H226 lung) was 6.02 µM and the GI50 (MDA-MB-231 breast) was 1.65 µM. It also gave a TGI (MDA-MB-231 breast) of 4.07 µM, a GI50 (KM12 colon) of 3.16 µM and a TGI (KM12 colon) of 12.1 µM. For the same compound, the GI50 (OVCAR-3 ovarian) was 2.29 µM, the TGI (OVCAR-3 ovarian) was 5.92 µM and the GI50 (SF-268 CNS) was 3.06 µM. For the same compound, the TGI (SF-268 CNS) was 11.8 µM, the GI50 (SF-539 CNS) was 1.67 µM and the TGI (SF-539 CNS) was 3.14 µM. It also gave a GI50 (MCF7 breast) of 1.9 µM, a TGI (MCF7 breast) of 4.88 µM and a GI50 (SNB-19 CNS) of 3.07 µM. It also gave a TGI (SNB-19 CNS) of 13 µM, a GI50 (IGROV1 ovarian) of 2.17 µM and a TGI (IGROV1 ovarian) of 6.79 µM. The GI50 (HS 578T breast) was 2.2 µM, the TGI (HS 578T breast) was 6.6 µM and the GI50 (MALME-3M melanoma) was 1.66 µM. For the same compound, the TGI (MALME-3M melanoma) was 3.17 µM, the GI50 (PC-3 prostate) was 1.99 µM and the TGI (PC-3 prostate) was 7.11 µM. The GI50 (RPMI-8226 leukemia) was 1.87 µM, the TGI (RPMI-8226 leukemia) was 4.94 µM and the GI50 (MDA-MB-435) was 1.66 µM. For the same compound, the TGI (MDA-MB-435) was 3.22 µM, the GI50 (HL-60(TB) leukemia) was 2.26 µM and the TGI (HL-60(TB) leukemia) was 5.28 µM. For the same compound, the GI50 (SK-MEL-2 melanoma) was 1.94 µM, the TGI (SK-MEL-2 melanoma) was 4.14 µM and the GI50 (NCI-H23 lung) was 1.63 µM. For the same compound, the TGI (NCI-H23 lung) was 4.22 µM, the GI50 (U251 CNS) was 1.96 µM and the TGI (U251 CNS) was 5.54 µM. It also gave a GI50 (OVCAR-5 ovarian) of 1.92 µM, a TGI (OVCAR-5 ovarian) of 6.81 µM and a GI50 (BT-549 breast) of 2.34 µM. The TGI (BT-549 breast) was 6.32 µM, the GI50 (OVCAR-4 ovarian) was 1.74 µM and the TGI (OVCAR-4 ovarian) was 5.59 µM. The GI50 (HT29 colon) was 1.7 µM, the TGI (HT29 colon) was 10.1 µM and the GI50 (OVCAR-8 ovarian) was 2.48 µM. For the same compound, the TGI (OVCAR-8 ovarian) was 9.82 µM, the GI50 (DU-145 prostate) was 3.28 µM and the TGI (DU-145 prostate) was 11.7 µM. For the same compound, the GI50 (NCI-H522 lung) was 1.53 µM, the TGI (NCI-H522 lung) was 4.67 µM and the GI50 (A549 NSCLC) was 1.88 µM. It also gave a TGI (A549 NSCLC) of 4.86 µM, a GI50 (NCI/ADR-RES ovarian) of 1.85 µM and a TGI (NCI/ADR-RES ovarian) of 5.97 µM. The GI50 (UACC-257 melanoma) was 2.11 µM, the TGI (UACC-257 melanoma) was 5.05 µM and the GI50 (HCT-15 colon) was 1.83 µM. For the same compound, the TGI (HCT-15 colon) was 4.59 µM, the GI50 (SK-MEL-28 melanoma) was 1.89 µM and the TGI (SK-MEL-28 melanoma) was 4.07 µM. It also gave a GI50 (ACHN renal) of 1.52 µM, a TGI (ACHN renal) of 3.47 µM and a GI50 (SR leukemia) of 1.94 µM. The TGI (SR leukemia) was 8.62 µM, the GI50 (T-47D breast) was 1.83 µM and the TGI (T-47D breast) was 4.61 µM. The GI50 (CCRF-CEM leukemia) was 2.77 µM, the TGI (CCRF-CEM leukemia) was 15 µM and the GI50 (HCT-116 colon) was 0.927 µM. It also gave a TGI (HCT-116 colon) of 4.4 µM, a GI50 (HCC-2998 colon) of 1.55 µM and a TGI (HCC-2998 colon) of 3.4 µM. It also gave a GI50 (UO-31 renal) of 1.19 µM, a TGI (UO-31 renal) of 2.62 µM and a GI50 (K-562 leukemia) of 2.23 µM. The TGI (K-562 leukemia) was 12.5 µM, the GI50 (UACC-62 melanoma) was 1.61 µM and the TGI (UACC-62 melanoma) was 3.48 µM. For the same compound, the GI50 (SN12C renal) was 2.4 µM, the TGI (SN12C renal) was 10.1 µM and the GI50 (RXF 393 renal) was 1.54 µM. It also gave a TGI (RXF 393 renal) of 3.07 µM, a GI50 (EKVX NSCLC) of 2.31 µM and a TGI (EKVX NSCLC) of 8.97 µM. The GI50 (HOP-92 NSCLC) was 1.22 µM, the TGI (HOP-92 NSCLC) was 4.57 µM and the GI50 (TK-10 renal) was 2.83 µM. For the same compound, the TGI (TK-10 renal) was 12.2 µM, the GI50 (COLO 205 colon) was 1.69 µM and the TGI (COLO 205 colon) was 3.89 µM. It also gave a GI50 (786-0 renal) of 1.89 µM and a TGI (786-0 renal) of 4.09 µM.
